Experiments:
[1] = test system: Isolate 10 (S4/+) callus culture; test: Callus growth on chlorsulfuron-supplemented medium; format: cell-based, Nicotiana tabacum; conditions: chlorsulfuron at 5 ppb (14 nM); further: key: Callus cultures capable of growth on this medium are designated R (resistant); S denotes sensitive callus cultures that did not grow in the presence of the herbicide
Method: (§1) Table 7, below, indicates sensitivity to chlorsulfuron of ALS activities in progeny of an S4/+ heterozygote. Data are presented as percent of ALS activity in the absence of chlorsulfuron. Each number represents the average of at least three independent experiments. Callus cultures initiated from the individual isolates were tested for growth on medium supplemented with chlorsulfuron at 5 ppb (14 nM).

[2] = test system: Isolate 30 (S4/S4) callus culture; test: Callus growth on chlorsulfuron-supplemented medium; format: cell-based, Nicotiana tabacum; conditions: chlorsulfuron at 5 ppb (14 nM); further: key: Callus cultures capable of growth on this medium are designated R (resistant); S denotes sensitive callus cultures that did not grow in the presence of the herbicide
Method: as §1

H1 callus culture = test: Callus growth on chlorsulfuron-supplemented medium; format: cell-based, Nicotiana tabacum; conditions: chlorsulfuron at 5 ppb (14 nM); further: key: Callus cultures capable of growth on this medium are designated R (resistant); S denotes sensitive callus cultures that did not grow in the presence of the herbicide
Method: as §1

[3] = test system: Isolate 24 (S4/+) callus culture; test: Callus growth on chlorsulfuron-supplemented medium; format: cell-based, Nicotiana tabacum; conditions: chlorsulfuron at 5 ppb (14 nM); further: key: Callus cultures capable of growth on this medium are designated R (resistant); S denotes sensitive callus cultures that did not grow in the presence of the herbicide
Method: as §1

[4] = test system: Isolate 7 (+/+) callus culture; test: Callus growth on chlorsulfuron-supplemented medium; format: cell-based, Nicotiana tabacum; conditions: chlorsulfuron at 5 ppb (14 nM)
Method: as §1

[5] = test system: yeast Saccharomyces cerevisiae; conditions: medium supplementation; cited from earlier work

SMILES | Callus Phenotype [1] | Callus Phenotype [2] | Callus Phenotype (H1 callus culture) | Callus Phenotype [3] | Callus Phenotype [4] | reversal of growth inhibition [5]
COc1nc(C)nc(NC(=O)NS(=O)(=O)c2ccccc2Cl)n1 [Chlorsulfuron, chlorsulfuron] | R | R | S | R | S | –
COC(=O)c1ccccc1S(=O)(=O)NC(=O)Nc1nc(C)cc(C)n1 [Sulfometuron-methyl, sulfometuron-methyl] | – | – | – | – | – | restored by addition of isoleucine, leucine, and valine

Source: patent publication US4774381A, “Herbicide resistant tobacco” (E. I. Du Pont de Nemours and Company, priority 1985, dated 1988)
